Source: PMC12542672, “Pleiotropic role of PAX cyclolipopeptides in the Xenorhabdus bacterium mutualistically associated with entomopathogenic nematodes” (Applied and Environmental Microbiology, 2025)
Values after ≈ are worked out from the molar mass of the structure shown. Like-named read-outs stand apart in the source and are kept apart here. Where a SMILES comes first, the peptide text is derived from it. Bridges are numbered along the chain shown (N, C = ends). Where no end group is shown, it is not given here. [ ]: non-standard residue; d: D form. The star is where a group is joined. Hexadecanoyl(3R-OH) = CCCCCCCCCCCCC[C@@H](O)CC(=O)*; Tetradecanoyl(3R-OH) = CCCCCCCCCCC[C@@H](O)CC(=O)*; X1 = CC[C@H](C)CCCCC(=O)*; Dab = NCC[C@H](N)C(=O)O

Legend:
X. nematophila WT = format: cell-based, Xenorhabdus nematophila F1
Method: (§1) Bacteria were routinely grown in Lysogeny Broth (Sigma-Aldrich) medium at 28°C (Xenorhabdus, S. maltophilia, P. protegens, Ochrobactrum sp., Achromobacter sp., A. faecalis, Pseudochrobactrum sp., Brevundimonas sp., E. mundtii, and D. rugosa) or 37°C (Escherichia coli and M. luteus). When required, antibiotics were used at the following final concentrations: gentamicin (Sigma-Aldrich), 20 µg mL^−1 and chloramphenicol (Sigma-Aldrich), 20 µg mL^−1 for E. coli strains and 15 µg mL^−1 for X. nematophila (or 8 µg mL^−1 for allelic exchange).
(§2) MICs were determined in accordance with CLSI guidelines ([73]) with the following modifications: 5 mL of MHB broth (Bio-Rad) was inoculated with an overnight culture in LB broth and grown to a 0.6 < OD600 < 0.9. The inoculum for the microplate was prepared as described in the CLSI guide, with dilution in MHB to approximately 10^4 CFU mL^−1. Ninety-six-well low-binding plates were incubated for 48 h at 28°C with slow shaking. The peptides used in the analyses were supplied by the following providers: cecropin A (Sigma-Aldrich), cecropin B1 (NeoMPS S.A.) ([74]), cecropin C (Proteogenix), cecropin P1 (Sigma-Aldrich), drosocin (Eurogentec), colistin (Sigma-Aldrich), polymyxin B (Sigma-Aldrich), and NOSO 95C (odilorhabdin, Nosopharm S.A.). Synthetic PAX1′, PAX2′, and PAX7 were provided by the SynBio3 platform (IBMM, Montpellier, France), and their structure is shown in Fig. S1.

X. nematophila ∆ngrA = experiment: MIC assay of antimicrobial peptides on X. nematophila ∆ngrA; format: cell-based, Xenorhabdus nematophila F1; settings: CLSI with modifications, MHB broth, approx. 10^4 CFU mL^−1, 96-well low-binding plates, 48 h at 28°C, slow shaking
Method: as §1, §2

Ochrobactrum sp. ALL4 = format: cell-based; settings: 48 h
Method: as §1, §2

Enterococcus mundtii SP = format: cell-based; settings: 48 h
Method: as §1, §2

[1] = test system: Pseudochrobactrum sp. AL3; format: cell-based; settings: 48 h
Method: as §1, §2

[2] = test system: Pseudomonas protegens PPSC10; format: cell-based; settings: 48 h
Method: as §1, §2

Brevundimonas sp. ALL3 = format: cell-based; settings: 48 h
Method: as §1, §2

[3] = test system: Stenotrophomonas maltophilia ALL5; format: cell-based; settings: 48 h
Method: as §1, §2

Diutina rugosa GC = format: cell-based; settings: 48 h
Method: as §1, §2

Achromobacter sp. D7.1 = format: cell-based; settings: 48 h
Method: as §1, §2

Alcaligenes faecalis SC = format: cell-based; settings: 48 h
Method: as §1, §2

[4] = test system: Micrococcus luteus CIP103430; format: cell-based; settings: CIP103430, 48 h
Method: as §1, §2

X. nematophila ∆paxA = format: cell-based, Xenorhabdus nematophila F1; settings: CLSI with modifications, MHB broth, approx. 10^4 CFU mL^−1, 96-well low-binding plates, 48 h at 28°C, slow shaking
Method: as §1
The ΔpaxA mutant was constructed using the same experimental strategy as for the construction of the ΔngrA mutant from the WT strain X. nematophila F1 ([37]). The upstream and downstream regions of the paxA gene were amplified by PCR with the L-PCR1-paxA-SalI and R-PCR1-paxA-BamHI primers for the upstream region (621 bp) and the L-PCR2-paxA-BamHI and R-PCR2-paxA-SpeI primers for the downstream region (601 bp). The two fragments obtained were inserted, together with the 3.8 kb BamHI fragment ΩCam cassette from pHP45-ΩCm, conferring resistance to chloramphenicol, into pJQ200SK digested with SalI and SpeI for insertion of the ΩCam cassette between the two PCR fragments. The resulting plasmid, pJQ-paxA::ΩCm, was used to transform E. coli WM3064 and was introduced into X. nematophila F1 by mating. Allelic exchange was performed as previously described ([68]). ΩCam insertion was confirmed by PCR analysis using primers L-paxTA and R-verif-pax. The absence of PAX peptide products was assessed by mass spectrometry analysis, as described below. The clone obtained was called ΔpaxA.
as §2

[5] = X. nematophila WT, CLSI with modifications, MHB broth, approx. 10^4 CFU mL^−1, 96-well low-binding plates, 48 h at 28°C, slow shaking

Compound	Minimum inhibitory concentration (X. nematophila WT; [5]) [µg/mL]	Minimum inhibitory concentration (X. nematophila ∆ngrA) [µg/mL]	Minimum inhibitory concentration (Ochrobactrum sp. ALL4) [µg/mL]	Minimum inhibitory concentration (Enterococcus mundtii SP) [µg/mL]	Minimum inhibitory concentration [1] [µg/mL]	Minimum inhibitory concentration [2] [µg/mL]	Minimum inhibitory concentration (Brevundimonas sp. ALL3) [µg/mL]	Minimum inhibitory concentration [3] [µg/mL]	Minimum inhibitory concentration (Diutina rugosa GC) [µg/mL]	Minimum inhibitory concentration (Achromobacter sp. D7.1) [µg/mL]	Minimum inhibitory concentration (Alcaligenes faecalis SC) [µg/mL]	Minimum inhibitory concentration [4] [µg/mL]	Minimum inhibitory concentration (X. nematophila ∆paxA) [µg/mL]	Minimum inhibitory concentration (X. nematophila WT; 48 h)
CCCCCCCCCCCCC[C@@H](O)CC(=O)NCC(=O)N[C@@H](CCCCN)C(=O)N[C@@H]1CCCCNC(=O)[C@H](CCCCN)NC(=O)[C@@H](CCCCN)NC(=O)[C@@H](CCCCN)NC(=O)[C@H](CCCCN)NC1=O [Synthetic PAX7] ({Hexadecanoyl(3R-OH)}-GK[dK]K[dK][dK]K; lactam 3-C (inferred))	187.5 (≈ 174 µM)	375 (≈ 347 µM)	62.5 (≈ 57.8 µM)	15.63 (≈ 14.5 µM)	62.5 (≈ 57.8 µM)	62.5 (≈ 57.8 µM)	31.25 (≈ 28.9 µM)	125 (≈ 116 µM)	62.5 (≈ 57.8 µM)	62.5 (≈ 57.8 µM)	125 (≈ 116 µM)	0.49 (≈ 0.453 µM)	–	–
CC[C@H](C)CCCCC(=O)N[C@@H](CCN)C(=O)N[C@H](C(=O)N[C@@H](CCN)C(=O)N[C@H]1CCNC(=O)[C@H]([C@@H](C)O)NC(=O)[C@H](CCN)NC(=O)[C@H](CCN)NC(=O)[C@H](CC(C)C)NC(=O)[C@@H](CC(C)C)NC(=O)[C@H](CCN)NC1=O)[C@@H](C)O [Colistin, colistin] (X1-[Dab]T[Dab][Dab][Dab][dL]L[Dab][Dab]T; lactam 4-C (inferred); N-terminus assumed)	3.9 (≈ 3.33 µM)	3.9 (≈ 3.33 µM)	–	–	–	–	–	–	–	–	–	–	1.95 (≈ 1.67 µM)	–
cecropin C	12.5	25	–	–	–	–	–	–	–	–	–	–	12.5	–
cecropin B1	6.25	6.25	–	–	–	–	–	–	–	–	–	–	6.25	–
CC[C@H](C)CCCCC(=O)N[C@@H](CCN)C(=O)N[C@H](C(=O)N[C@@H](CCN)C(=O)N[C@H]1CCNC(=O)[C@H]([C@@H](C)O)NC(=O)[C@H](CCN)NC(=O)[C@H](CCN)NC(=O)[C@H](CC(C)C)NC(=O)[C@@H](Cc2ccccc2)NC(=O)[C@H](CCN)NC1=O)[C@@H](C)O [Polymyxin B, polymyxin B] (X1-[Dab]T[Dab][Dab][Dab][dF]L[Dab][Dab]T; lactam 4-C (inferred); N-terminus assumed)	0.245 (≈ 0.204 µM)	0.245 (≈ 0.204 µM)	–	–	–	–	–	–	–	–	–	–	0.245 (≈ 0.204 µM)	–
CCCCCCCCCCC[C@@H](O)CC(=O)NCC(=O)N[C@@H](CCCCN)C(=O)N[C@@H]1CCCCNC(=O)[C@H](CCCCN)NC(=O)[C@@H](CCCCN)NC(=O)[C@@H](CCCCN)NC(=O)[C@H](CCCCN)NC1=O [Synthetic PAX1′] ({Tetradecanoyl(3R-OH)}-GK[dK]K[dK][dK]K; lactam 3-C (inferred))	–	–	> 250	125 (≈ 119 µM)	> 250	> 250	31.25 (≈ 29.7 µM)	> 250	25 (≈ 23.8 µM)	> 250	> 250	3.9 (≈ 3.71 µM)	–	>1,500 µg mL^−1
GKPRPYSPRPTSHPRPIRV [Drosocin, drosocin]	–	–	–	–	–	–	–	–	–	–	–	–	–	>50 µg/mL
CCCCCCCCCCC[C@@H](O)CC(=O)NCC(=O)N[C@@H](CCCNC(=N)N)C(=O)N[C@@H]1CCCCNC(=O)[C@H](CCCCN)NC(=O)[C@@H](CCCCN)NC(=O)[C@@H](CCCCN)NC(=O)[C@H](CCCCN)NC1=O [Synthetic PAX2′] ({Tetradecanoyl(3R-OH)}-GR[dK]K[dK][dK]K; lactam 3-C (inferred))	–	375 (≈ 347 µM)	62.5 (≈ 57.8 µM)	31.25 (≈ 28.9 µM)	125 (≈ 116 µM)	125 (≈ 116 µM)	62.5 (≈ 57.8 µM)	125 (≈ 116 µM)	62.5 (≈ 57.8 µM)	62.5 (≈ 57.8 µM)	125 (≈ 116 µM)	1.95 (≈ 1.8 µM)	375 (≈ 347 µM)	187.5 µg/mL (≈ 174 µM)
SWLSKTAKKLENSAKKRISEGIAIAIQGGPR [Cecropin P1, cecropin P1]	>12.5	12.5	–	–	–	–	–	–	–	–	–	–	–	–
